In ChEMBL document CHEMBL1154288, “The discovery and unique pharmacological profile of RO4938581 and RO4882224 as potent and selective GABAA alpha5 inverse agonists for the treatment of cognitive dysfunction” (Bioorg Med Chem Lett, 2009):
Calls of active or inactive are those of the source. The rule behind the calls is not given here.

How the values were obtained:
[1] = biological target: GABA A receptor alpha-5/beta-3/gamma-2 (Rattus norvegicus) (UniProt P18508+P19969+P63079); test: Inverse agonist activity at rat GABA alpha-5-beta-3-gamma-2 receptor expressed in HEK293 cells by electrophysiology assay relative to GABA; format: functional, cell-based
[2] = Permeability by PAMPA; format: ADME; conditions: read-out: permeability
[3] = biological target: T1, GABA-A receptor; alpha-1/beta-3/gamma-2 (Homo sapiens, UniProt P14867+P18507+P28472); test: Displacement of [3H]Flumazenil from cloned human GABA alpha-1-beta-3-gamma-2 receptor expressed in HEK293 cells; format: cell-based
T1 sequence (P14867 whole entry): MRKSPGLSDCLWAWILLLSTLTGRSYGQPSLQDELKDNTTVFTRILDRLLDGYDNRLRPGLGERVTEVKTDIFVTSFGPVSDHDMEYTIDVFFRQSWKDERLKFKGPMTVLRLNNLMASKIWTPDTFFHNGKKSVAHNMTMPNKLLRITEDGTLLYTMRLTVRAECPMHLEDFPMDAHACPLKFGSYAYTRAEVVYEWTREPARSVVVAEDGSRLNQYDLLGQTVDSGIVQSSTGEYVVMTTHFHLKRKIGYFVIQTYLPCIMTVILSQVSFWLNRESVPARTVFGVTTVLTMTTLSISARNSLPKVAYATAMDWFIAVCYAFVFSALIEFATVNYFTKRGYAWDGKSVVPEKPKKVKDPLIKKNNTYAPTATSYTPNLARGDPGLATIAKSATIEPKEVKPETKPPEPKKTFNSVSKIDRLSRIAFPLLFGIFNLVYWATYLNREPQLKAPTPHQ
T1 sequence (P18507 whole entry): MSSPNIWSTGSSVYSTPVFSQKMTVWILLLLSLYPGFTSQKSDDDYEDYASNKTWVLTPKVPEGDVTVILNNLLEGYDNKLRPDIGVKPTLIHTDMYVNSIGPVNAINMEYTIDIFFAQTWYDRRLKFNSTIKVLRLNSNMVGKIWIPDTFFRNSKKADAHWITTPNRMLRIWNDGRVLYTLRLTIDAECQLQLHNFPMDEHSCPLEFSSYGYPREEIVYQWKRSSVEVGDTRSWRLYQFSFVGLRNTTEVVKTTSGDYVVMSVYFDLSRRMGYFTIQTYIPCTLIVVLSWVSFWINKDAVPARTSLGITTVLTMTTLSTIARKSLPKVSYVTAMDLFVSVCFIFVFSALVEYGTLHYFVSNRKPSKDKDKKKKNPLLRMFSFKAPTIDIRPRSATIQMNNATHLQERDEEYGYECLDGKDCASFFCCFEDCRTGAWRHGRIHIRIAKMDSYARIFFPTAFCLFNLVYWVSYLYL
T1 sequence (P28472 whole entry): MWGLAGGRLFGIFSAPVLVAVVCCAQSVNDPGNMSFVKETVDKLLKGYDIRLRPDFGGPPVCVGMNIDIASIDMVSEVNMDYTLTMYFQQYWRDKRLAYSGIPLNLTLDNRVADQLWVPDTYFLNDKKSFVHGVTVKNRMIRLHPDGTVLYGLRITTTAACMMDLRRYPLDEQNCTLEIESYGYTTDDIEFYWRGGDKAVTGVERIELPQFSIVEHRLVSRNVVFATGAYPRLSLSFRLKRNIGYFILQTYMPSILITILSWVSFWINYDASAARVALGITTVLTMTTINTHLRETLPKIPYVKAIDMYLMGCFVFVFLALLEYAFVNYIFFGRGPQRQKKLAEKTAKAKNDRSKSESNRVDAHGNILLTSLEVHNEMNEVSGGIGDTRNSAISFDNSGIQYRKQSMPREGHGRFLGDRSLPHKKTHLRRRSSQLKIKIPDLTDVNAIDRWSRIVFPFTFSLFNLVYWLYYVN

[4] = Half life in rat; format: ADME, organism-based; conditions: in vivo
[5] = Clearance in rat; format: ADME, organism-based; conditions: in vivo
[6] = Oral bioavailability in rat; format: ADME, organism-based; conditions: in vivo
[7] = biological target: GABA-A receptor; alpha-1/beta-2/gamma-2 (Rattus norvegicus) (UniProt P18508+P62813+P63138); test: Inverse agonist activity at rat GABA alpha-1-beta-3-gamma-2 receptor expressed in HEK293 cells by electrophysiology assay relative to GABA; format: functional, cell-based
Rattus norvegicus [8] = test: Behavioral effect in Lister hooded rat assessed as reversal of scopolamine-induced working memory impairment at 1 mg/kg, po by delayed match to position task method; format: functional, organism-based; design: dose 1 mg/kg
HEK293 = test: Selectivity ratio of Ki for cloned human GABA alpha-2-beta-3-gamma-2 receptor expressed in HEK293 cells to Ki for cloned human GABA alpha-5-beta-3-gamma-2 receptor expressed in HEK293 cells; format: cell-based
Rattus norvegicus [9] = test: Behavioral effect in Lister hooded rat assessed as reversal of scopolamine-induced working memory impairment at 1 mg/kg, po after 24 seconds by delayed match to position task method; format: functional, organism-based; design: dose 1 mg/kg
Rattus norvegicus [10] = test: Behavioral effect in Lister hooded rat assessed as reversal of scopolamine-induced working memory impairment at 1 mg/kg, po after 16 seconds by delayed match to position task method; format: functional, organism-based; design: dose 1 mg/kg
[11] = biological target: GABA-A receptor; alpha-5/beta-3/gamma-2 (Homo sapiens) (UniProt P18507+P28472+P31644); test: Inverse agonist activity at human GABA alpha-5-beta-3-gamma-2 receptor expressed in Xenopus laevis oocyts by electrophysiology assay relative to GABA; format: functional
Cynomolgus monkey = test: Behavioral effect in cynomolgus monkey assessed as improved executive function at 3 to10 mg/kg, po by object retrieval task method; format: functional, organism-based; conditions: Macaca fascicularis
Rattus norvegicus [12] = organism: Rattus norvegicus; test: Anxiogenic activity in Lister hooded rat by social approach avoidance test; format: functional, organism-based
Rattus norvegicus [13] = test: Behavioral effect in Lister hooded rat assessed as inhibition of diazepam-induced spartial learning impairment at 1 to 10 mg/kg, po by delayed match to position task method; format: functional, organism-based
Rattus norvegicus [14] = test: Behavioral effect in Lister hooded rat assessed as reversal of scopolamine-induced working memory impairment at 0.3 to 1 mg/kg, po by delayed match to position task method; format: functional, organism-based
Rattus norvegicus [15] = organism: Rattus norvegicus; test: Anxiogenic activity in Lister hooded rat by elevated plus maze test; format: functional, organism-based
Mus musculus = organism: Mus musculus; test: Anticonvulsive activity in mouse audiogenic seizure model; format: functional, organism-based
Rattus norvegicus [16] = test: Behavioral effect in Lister hooded rat assessed as reversal of scopolamine-induced working memory impairment at 0.1 mg/kg, po after 24 seconds by delayed match to position task method; format: functional, organism-based; design: dose 0.1 mg/kg

Which Efficacy [1] does the source give for `Clc1ccc2c(c1)-c1ncnn1Cc1c(Cl)ncn1-2` here?
The Efficacy was -40.

And the Papp [2]?
The Papp was 6.5 ×10⁻⁶ cm/s.

And the Ki [3]?
The Ki was 15 nM.

And the half-life [4]?
Its half-life is 0.6 h.

And the clearance [5]?
The clearance was 12.4 mL/min/kg.

And the bioavailability [6]?
The bioavailability was 81%.

What about the Efficacy [7] of the same compound?
The Efficacy was -3%.

And the Activity (Rattus norvegicus [8])?
The Activity was “inactive”.

And the Ratio Ki (HEK293)?
The Ratio Ki was 12.

What about the Activity (Rattus norvegicus [9]) of the same compound?
The Activity was “Active”.

And the Activity (Rattus norvegicus [10])?
Its Activity is “Active”.

What about the Activity [11] of the same compound?
Its Activity is “Active”.

With `FC(F)c1ncn2c1Cn1ncnc1-c1cc(Br)ccc1-2` as the compound, how does the Efficacy [1] read?
The Efficacy was -35%.

And the Papp [2]?
The Papp was 7 ×10⁻⁶ cm/s.

And the Activity (Cynomolgus monkey)?
The Activity was “Active”.

And the Activity (Rattus norvegicus [12])?
Its Activity is “inactive”.

What about the Activity (Rattus norvegicus [13]) of the same compound?
Its Activity is “Active”.

What about the Activity (Rattus norvegicus [14]) of the same compound?
The Activity was “Active”.

What about the Ki [3] of the same compound?
The Ki was 174 nM.

And the half-life [4]?
The half-life was 4.9 h.

And the clearance [5]?
Its clearance is 2.9 mL/min/kg.

What about the bioavailability [6] of the same compound?
The bioavailability was 89%.

And the Efficacy [7]?
The Efficacy was -3%.

And the Activity (Rattus norvegicus [15])?
The Activity was “inactive”.

And the Activity (Mus musculus)?
Its Activity is “inactive”.

What about the Activity (Rattus norvegicus [16]) of the same compound?
Its Activity is “Active”.

With `Clc1ncn2c1Cn1ncnc1-c1cc(Br)ccc1-2` as the compound, how does the Efficacy [1] read?
Its Efficacy is -48%.

And the Papp [2]?
The Papp was 7 ×10⁻⁶ cm/s.

What about the Ki [3] of the same compound?
Its Ki is 33 nM.

And the half-life [4]?
Its half-life is 1.6 h.

And the clearance [5]?
Its clearance is 9.7 mL/min/kg.

What about the bioavailability [6] of the same compound?
The bioavailability was 56%.

What about the Efficacy [7] of the same compound?
Its Efficacy is -13%.

And the Ratio Ki (HEK293)?
Its Ratio Ki is 18.

Which Efficacy [1] does the source give for `Cc1ncn2c1Cn1ncnc1-c1cc(Cl)ccc1-2` here?
Its Efficacy is -41%.

What about the Papp [2] of the same compound?
Its Papp is 8.9 ×10⁻⁶ cm/s.

What about the Ki [3] of the same compound?
The Ki was 18 nM.

What about the half-life [4] of the same compound?
Its half-life is 3.4 h.

And the clearance [5]?
The clearance was 7.2 mL/min/kg.

And the bioavailability [6]?
Its bioavailability is 52%.

What about the Efficacy [7] of the same compound?
Its Efficacy is -11%.

What about the Ratio Ki (HEK293) of the same compound?
The Ratio Ki was 72.
